From patent US20120065365A1, “Stable Radiopharmaceutical Compositions and Methods for Their Preparation” (BRACCO IMAGING S.P.A., priority 2003, published 2012)
Read-outs that look alike come from different tables or passages of the source.

Key:
[1] = assay type: physicochemical
Method: The ratio of COMPOUND A to Lutetium was 3:1 for all samples. The reaction mixtures were heated, cooled, treated with Na2EDTA.2H2O and analyzed by HPLC as described in Example 13, and then stored at room temperature for 24 hours, at which time all samples were analyzed again.

[2] = Effect of contaminant zinc on ^177Lu-B labeling with PDTC in reaction buffer (Example 20); assay type: physicochemical; conditions: Sample 2: COMPOUND B with ^177Lu in the presence of zinc and PDTC (COMPOUND B:^177Lu:Zinc 3:1:3)
Method: The injection volume was 10 μL.
At times, ^177LuCl3 isotope solutions are contaminated with non-radioactive metals that can interfere with radiolabeling. These metals (which may include, for example Zn, Cu, Ca and Fe among others), can compete with ^177Lu for the chelator, thus lowering reaction yields by consuming ligand so it is unavailable for chelation to ^177Lu.
A 10-mg/mL solution of 1pyrrolidine dithiocarbamic acid ammonium salt was prepared by dissolving it in sodium acetate buffer (0.2 M, pH 4.8). To a lead-shielded, 300-μL sample vial was added 86.5 μL of the NaOAc buffer solution, 13.7 mCi ^177LuCl3, 0.6525 μg zinc (6.52 μL of a 100-μg/mL zinc plasma standard solution) and 15 μg COMPOUND B (dissolved in water). This was labeled as ‘Sample 1’. To another lead-shielded, 300-μL sample vial was added 86.5 μL of the […] 1-pyrrolidine dithiocarbamic acid ammonium salt/NaOAc buffer solution, 13.8 mCi ^177LuCl3, 0.6525 μg zinc and 15 μg COMPOUND B. This was labeled as ‘Sample 2’. The concentration of COMPOUND B in each sample was 150 μg/mL and the molar ratio of COMPOUND B:^177Lu:Zinc for each sample was 3:1:3. The samples were heated to 100° C. for 5 min, and then cooled for 5 min in an ambient-temperature water bath. To each sample, 10 μL of 2% Na2EDTA.2H2O in water was added, and then each was analyzed by HPLC, using HPLC Method 5.

[3] = assay type: physicochemical; remark: listed apart in the source
Method: The reaction vial was crimp-sealed and heated at 100° C. for 5 min. […] The sample was stored in an autosampler in which the temperature is ˜6° C. […] than room temperature, and analyzed by RP-HPLC for up to 24 hours.
L-Selenomethionine: ^177Lu-B was prepared, diluted and analyzed as described above, but 5 mg of L-Se-Met was used in place of PDTC, the heating time was 10 minutes, and the quantity of radioactivity used was 52 mCi.
L-cysteine ethyl ester, HCl: ^177Lu-B was prepared, diluted and analyzed as described above, but 5 mg of L-CEE, hydrochloride salt was used in place of PDTC, the heating time was 5 minutes and the quantity of radioactivity used was 50 mCi.
L-cysteine HCl.H2O: ^177Lu-B was prepared, diluted and analyzed as described above, but 5 mg of L-Cys HCl.H2O was used in place of PDTC, the heating time was 8 minutes and the quantity of radioactivity used was 53 mCi.

[4] = assay type: physicochemical; remark: listed apart in the source
Method: The injection volume was 20 μL.
Solutions of 1-pyrrolidine dithiocarbamic acid ammonium salt (PDTC) were prepared at concentrations of 20-, 10-, 5- and 1 mg/mL by dissolving it in a sodium acetate (NaOAc) buffer solution (0.2 M, pH 4.8). To lead-shielded 300-μL sample vials were added, individually, 50-μL aliquots of the PDTC-NaOAc butter solutions, including an aliquot of the NaOAc buffer only, to serve as a control sample. To each buffer aliquot was added 9.95 mCi ^177LuCl3 (avg) and 17.2 μg COMPOUND A (dissolved in water). The molar ratio of COMPOUND A:Lu (total Lu) for each sample was 3:1. During the reaction, in each sample, the concentration of COMPOUND A was 287-μg/mL and the activity concentration was 167-mCi/mL. The samples wore heated to 100° C. for 5 minutes, then cooled for 5 minutes in an ambient-temperature water bath. To each sample, 10 μL of 2% EDTA in water was added, and then each was analyzed by HPLC (Method 3) over 48 hours. At t=0, the radioactivity concentration was 143 mCi/mL.

[5] = ^177Lu-A prepared with PDTC 1 mg/mL (0.05 mg)
[6] = ^177Lu-A prepared with PDTC 5 mg/mL (0.25 mg)
[7] = ^177Lu-A prepared with PDTC 10 mg/mL (0.5 mg)
[8] = ^177Lu-A prepared with PDTC 20 mg/mL (1 mg)

**Q.** With `N.S=C(S)N1CCCC1` [PDTC, 1-pyrrolidine dithiocarbamic acid ammonium salt] as the compound, how does the “RCP % t = 0 h” value ([1]; ^177Lu-A (4.65-5.64 mCi) prepared in presence of stabilizer 5 mg/mL, 0 h) read?
**A.** The value was 100%.

**Q.** And the “RCP % t = 24 h” value ([1]; ^177Lu-A prepared in presence of stabilizer 5 mg/mL, room temperature, 24 h)?
**A.** Its value is 99.9%.

**Q.** What about the RCP [2] of the same compound?
**A.** Its RCP is 100%.

**Q.** What about the “(% RCP) 6-h” value ([3]; ^177Lu-B (44-53 mCi) formulated with 5 mg stabilizing compound, 6 h) of the same compound?
**A.** The value was 94.7%.

**Q.** And the “(% RCP) 24-h” value ([3]; ^177Lu-B (44-53 mCi) formulated with 5 mg stabilizing compound, 24 h)?
**A.** Its value is 94.0%.

**Q.** And the “(% RCP) 0-h” value ([3]; ^177Lu-B (44-53 mCi) formulated with 5 mg stabilizing compound, diluted to ~2 mL, ~6° C. above room temperature, 0 h)?
**A.** The value was 95.0%.

**Q.** What about the “RCP Drop over 24 hr” value ([3]; ^177Lu-B formulated with 5 mg stabilizing compound, 0 to 24 h) of the same compound?
**A.** Its value is 1%.

**Q.** What about the “RCP (%) 0-h” value ([4]; ^177Lu-A 143 mCi/mL at t=0, prepared with PDTC 1 mg/mL (0.05 mg)) of the same compound?
**A.** Its value is 100%.

**Q.** And the “RCP (%) 0-h” value ([4]; ^177Lu-A 143 mCi/mL at t=0, prepared with PDTC 5 mg/mL (0.25 mg))?
**A.** The value was 100%.

**Q.** What about the “RCP (%) 0-h” value ([4]; ^177Lu-A 143 mCi/mL at t=0, prepared with PDTC 10 mg/mL (0.5 mg)) of the same compound?
**A.** The value was 100%.

**Q.** And the “RCP (%) 0-h” value ([4]; ^177Lu-A 143 mCi/mL at t=0, prepared with PDTC 20 mg/mL (1 mg))?
**A.** The value was 100%.

**Q.** And the “RCP (%) 3-h” value [4, 5]?
**A.** Its value is 100%.

**Q.** And the “RCP (%) 6-h” value [4, 5]?
**A.** The value was 17.2%.

**Q.** What about the “RCP (%) 12-h” value [4, 5] of the same compound?
**A.** Its value is 0%.

**Q.** What about the “RCP (%) 24-h” value [4, 5] of the same compound?
**A.** The value was 0%.

**Q.** And the “RCP (%) 3-h” value [4, 6]?
**A.** Its value is 100%.

**Q.** What about the “RCP (%) 6-h” value [4, 6] of the same compound?
**A.** The value was 100%.

**Q.** And the “RCP (%) 12-h” value [4, 6]?
**A.** Its value is 100%.

**Q.** What about the “RCP (%) 24-h” value [4, 6] of the same compound?
**A.** The value was 0%.

**Q.** And the “RCP (%) 3-h” value [4, 7]?
**A.** Its value is 100%.

**Q.** What about the “RCP (%) 6-h” value [4, 7] of the same compound?
**A.** Its value is 100%.

**Q.** What about the “RCP (%) 12-h” value [4, 7] of the same compound?
**A.** The value was 100%.

**Q.** And the “RCP (%) 24-h” value [4, 7]?
**A.** The value was 100%.

**Q.** And the “RCP (%) 48-h” value [4, 7]?
**A.** The value was 100%.

**Q.** And the “RCP (%) 3-h” value [4, 8]?
**A.** The value was 100%.

**Q.** What about the “RCP (%) 6-h” value [4, 8] of the same compound?
**A.** The value was 100%.

**Q.** And the “RCP (%) 12-h” value [4, 8]?
**A.** The value was 100%.

**Q.** And the “RCP (%) 24-h” value [4, 8]?
**A.** Its value is 100%.

**Q.** And the “RCP (%) 48-h” value [4, 8]?
**A.** The value was 100%.

**Q.** What about the “RCP for up to 48 hours” value ([4]; ^177Lu-A, PDTC at 20 mg/mL) of the same compound?
**A.** The value was 100%.
